The text below walks through data of US20230097293A1, “LMP1 TARGETING LANTHANIDE COMPLEXES AND METHODS OF USE THEREOF” (BP InnoMed Limited, priority 2021, published 2023).

What all share (format): cell-based
Data set [1] concerns NF-κB p65 and p50. In words: Western blot of nuclear NF-κB p65 and p50. The settings on record: for nuclear p65 and p50 expression: LCL3 and AFB1, TNFα 10 ng/mL pre-treatment, compared with control. The procedure:
Western blot analysis was also carried out to validate the above imaging results for the components in NF-κB pathway. The LMP1-overexpressing LCL3 and AFB1 cell lines were used for this analysis. […] After 24 hours incubation, the nuclear extracts were separated for each treatment, and the expression of NF-κB p65 and p50 was detected by Western blot analysis. […] Western blots of individual replicates for NF-κB p65 and p50 in different cell lines were illustrated in FIG. 14. […] The reduction in NF-κB activity can contribute to the cytotoxicity of the three compounds towards LMP1-overexpressing cells.
Cells with different treatments were harvested and washed with phosphate-buffered saline (PBS). Lysis buffer supplied by 1X proteases-phosphatase inhibitor were added into the cells for 5 min on ice. Then the samples were centrifuged at 14,000×g at 4° C. for 20 minutes. The fractionated cell lysates were subjected to SDS-PAGE gel and transferred onto PVDF membranes. Membranes were then blocked by 3% non-fat milk for 30 minutes at room temperature and incubated with specific primary antibodies at 4° C. overnight. They were then washed with TBST buffer and incubated with corresponding secondary antibodies for 1 h at room temperature. Then, the membranes were washed with TBST, and chemiluminescence substrate was added onto the membrane surface. ChemiDoc XRS system and Image Lab Software were used to visualize the blot.
(A western blot detects proteins with antibodies after separation by electrophoresis.)

Data set [2] has as its system weakly LMP1-positive (C666-1) and LMP1-negative cell lines (HeLa, MRCS). The data set is described as follows: MTT cytotoxicity assay, weakly LMP1-positive or LMP1-negative cells. The procedure:
(§1) To study the effects of the designed probes on cell survival, the MTT cytotoxicity assay was carried out in several highly LMP1-positive (LCL3, AFB1, AG876), weakly LMP1-positive (C666-1) and LMP1- negative cell lines (HeLa, MRCS), as shown in FIG. 9.
(§2) LCL3, AG876, AFB1 and C666-1 cells were grown in RPMI-1640 medium. HeLa cells were cultivated in DMEM medium and MRCS cells are cultivated in MEM medium (Gibco, USA). All media are supplemented with 10% fetal bovine serum and 1% penicillin/streptomycin antibiotics. All the cells are cultivated in a humidified incubator with 5% CO2 at 37° C. The pTRE-EGFP plasmid was transduced into LCL3 cells as previously mentioned.
Background: Tetrazolium assays rely on reduction of a dye to a coloured formazan, in cell work by metabolically active cells.

Data set [3] has as its system NF-κB activity. The data set is described as follows: pTRE-EGFP reporter of NF-κB activity in LCL3 cells. The settings on record: LCL3, 6 hours. The procedure:
(§3) We then investigate the inhibitory effects of our anti-LMP1 conjugates on the NF-κB pathway, which is one of the major pathways that EBV has hijacked for promoting cell growth and proliferation in EBV-associated tumours. Since NF-κB is typically activated by the canonical pathway which involves the nuclear translocation of the heterodimer of p50 and p65, immunofluorescence imaging of NF-κB p65 was then performed. Tumour necrosis factor alpha (TNFα) was added to these tumour cells, so as to activate the NF-κB pathway.
The antibodies including anti-LMP1 were purchased from Kerafast, while anti-NF-κB p65, anti-NF-κB p105/50, anti-histone H3, anti-GAPDH were purchased from Cell Signaling Technology. Anti-rabbit IgG HRP-linked, anti-mouse IgG HRP-linked, protease/phosphatase inhibitor cocktail were purchased from Cell Signaling Technology. Alexa Fluor 488-conjugated goat anti-mouse IgG, NucBlue fixed cell ready probes (DAPI), and ProLong gold antifade mountant with DAPI were purchased from Invitrogen. The transcriptional response element (TRE)-fluorescent protein reporter, pTRE-EGFP plasmid, was constructed as previously reported.
LCL3, AG876, AFB1 and C666-1 cells were grown in RPMI-1640 medium. HeLa cells were cultivated in DMEM medium and MRCS cells are cultivated in MEM medium (Gibco, USA). All media are supplemented with 10% fetal bovine serum and 1% penicillin/streptomycin antibiotics. […]

In data set [4] the test system is NF-κB p65. The data set is described as follows: Immunofluorescence imaging of NF-κB p65 after TNFα activation. The settings on record: for effect on p65 fluorescence signal: LCL3, 10 μM, 24 h, TNFα 10 ng/ml preincubation. The procedure: as §3
These assays were prepared and conducted at room temperature, unless otherwise stated. Cells with different treatment were fixed by formalin for 15 min. The samples were then washed with PBS and 0.2% Triton-X buffer was added onto the samples for 15 min. 3% BSA in PBS was served as the blocking buffer and applied onto the sample for 30 minutes at room temperature. The primary antibody was diluted in blocking buffer and added onto the sample at 4° C. overnight. The samples were washed with PBS and corresponding secondary antibodies were added over 1 h. Samples were washed with PBS and mountant was applied to each sample. Images were acquired either using a 370 nm laser excitation or from a 370 nm LED excitation of a Nikon Eclipse Ti2 Confocal Microscope. NIR images were captured by a NIRvana TE 640 camera. The signal enhancement of the C666-1 images were obtained by enhancing the exposure of the captured images by the NIS element AR software. Multiphoton microscopy was conducted by Leica TCS SP8 MP System.

A short description of data set [5]: MTT cytotoxicity assay, all selected cell lines. The note with it: read-out: LC50 (the source's name). On the procedure:
as §1, §2

Where a SMILES comes first, the peptide text is derived from it. [ ]: non-standard residue; d: D form. dPra = C#CC[C@@H](N)C(=O)O; Ahx = NCCCCCC(=O)O

`C#CC[C@@H](N)C(=O)N[C@@H](CCCCN)C(=O)NCCCCCC(=O)N[C@@H](CCCCN)C(=O)N[C@@H](CC(C)C)C(=O)N[C@@H](CC(=O)O)C(=O)N[C@@H](CC(C)C)C(=O)N[C@@H](C)C(=O)N[C@@H](CC(C)C)C(=O)N[C@@H](CCCCN)C(=O)N[C@@H](Cc1ccccc1)C(=O)N[C@@H](Cc1c[nH]c2ccccc12)C(=O)N[C@@H](CC(C)C)C(=O)N[C@@H](Cc1ccc(O)cc1)C(=O)N[C@@H](CCCCN)C(=O)N[C@H](C(=O)N[C@H](C(=O)N[C@@H](CCSC)C(=O)N[C@@H](CO)C(=O)N[C@@H](CC(=O)O)C(=O)N[C@@H](CCCCN)C(=O)N[C@@H](Cc1c[nH]c2ccccc12)C(=O)N[C@@H](CCCCN)C(=O)N[C@@H](CCCNC(=N)N)C(=O)N[C@H](CCCNC(=N)N)C(=O)N[C@@H](CCCNC(=N)N)C(=O)N[C@@H](CCCCN)C(=O)O)C(C)C)[C@@H](C)CC` [P19, Pra-KAhx-K-LDLALK-FWLY-K-IVMSDKW-K-RrRK] (H-[dPra]K[Ahx]KLDLALKFWLYKIVMSDKWKR[dR]RK-OH; N-terminus and C-terminus assumed): the “changes in expression of p65 and p50” value in data set [1] (C666-1 and HeLa cells) is “relatively minor”. Moreover, the “nuclear p65 and p50 expression” value in data set [1] is listed as “significantly weakened”. Also, the cytotoxicity result in data set [2] was “relatively low”. In addition, in data set [3], the GFP reporter signals entry is “decreased”. Further, the “effect on p65 fluorescence signal” value in data set [4] was “significant suppression”. Besides, in data set [4] (LMP1-negative HeLa and weak LMP1-expressing C666-1 cells), the “effect on NF-κB pathway (p65 fluorescence)” value was “did not exhibit any effect”.
Turning to `C#CC[C@@H](N)C(=O)N[C@@H](CCCCN)C(=O)NCCCCCC(=O)N[C@@H](CCCCN)C(=O)N[C@@H](CC(C)C)C(=O)N[C@@H](CC(=O)O)C(=O)N[C@@H](CC(C)C)C(=O)N[C@@H](C)C(=O)N[C@@H](CC(C)C)C(=O)N[C@@H](CCCCN)C(=O)N[C@@H](C)C(=O)N[C@@H](C)C(=O)N[C@@H](C)C(=O)N[C@@H](C)C(=O)N[C@@H](CCCCN)C(=O)N[C@H](C(=O)N[C@H](C(=O)N[C@@H](CCSC)C(=O)N[C@@H](CO)C(=O)N[C@@H](CC(=O)O)C(=O)N[C@@H](CCCCN)C(=O)N[C@@H](Cc1c[nH]c2ccccc12)C(=O)N[C@@H](CCCCN)C(=O)N[C@@H](CCCNC(=N)N)C(=O)N[C@H](CCCNC(=N)N)C(=O)N[C@@H](CCCNC(=N)N)C(=O)N[C@@H](CCCCN)C(=O)O)C(C)C)[C@@H](C)CC` [P19C, reference compound] (H-[dPra]K[Ahx]KLDLALKAAAAKIVMSDKWKR[dR]RK-OH; N-terminus and C-terminus assumed), the “nuclear p65 and p50 expression” value in data set [1] was “no obvious change”. Also, the CC50 in data set [5] was above 200 µM. Moreover, in data set [4], the “effect on p65 fluorescence signal” value is “no significant effect”.
